Measured values published in patent publication US6527759B1, “Ultrasound assembly for use with light activated drugs” (Ekos Corporation, priority 1995, dated 2003).

How the values were obtained:
[1] = Drug solubility in oil: SnEt2 in MCT oil with excipient combinations (Example 5); format: physicochemical; details: emulsion with excipients vs MCT oil alone
Procedure: (§1) Several emulsions are prepared as described above. In 5 ml glass tubes, medium chain length oil known as MCT oil (Miglyol 801, Hüls America, Piscataway, N.J.) is combined with 10 mg/gm SnEt2 plus excipients as described above. Certain emulsions also included additional excipients in the following concentrations: ethanol at […]; egg phospholipids at 75 mg/gm oil; and sodium cholate at 10 mg/gm oil. After incubating for 30 minutes at 55° C., the tubes stand overnight at room temperature (19°-22° C.). The tubes arc centrifuged to remove bulk precipitates, and supernatants are filtered through 0.45 μm nylon membrane to remove any undissolved drug. Aliquots of filtrate are then diluted in chloroform:isopropyl alcohol (1:1) for spectrophotometric determination of drug concentration (absorbance at 662 nm). Reference standards are prepared with known concentrations of SnEt2 in the same solvent.
The concentration of SnEt2 in each of the emulsions is illustrated in Table 2. As illustrated, the concentration of SnEt2 in the emulsion can be more than ten times the concentration in MCT oil alone.

[2] = Relative efficiency of bile salts as co-solubilizers for SnEt2 in MCT oil, egg phospholipids and ethanol (Example 6); format: physicochemical; details: egg phospholipids, ethanol
Procedure: as §1
This example illustrates relative efficiencies of several bile salts. Mixtures of MCT oil, egg phospholipids, ethanol, and SnEt2 are incubated with different bile salts, all at 4.6 mM^1, under the same conditions described above. […] Cholic acid lacks solubilizing action in the oil.

- concentration of SnEt2 in the emulsion relative to the concentration in MCT oil alone [1]: more than ten
- SnEt2 Concentration ([2]; bile compound: Cholic acid, 4.6 mM): 1.33 mg/gm oil
- SnEt2 Concentration ([2]; bile compound: Na Tauracholate, 4.6 mM): 1.13 mg/gm oil
- SnEt2 Concentration ([2]; bile compound: Na cholate, 4.6 mM): 3.70 mg/gm oil
- SnEt2 Concentration ([2]; bile compound: Na deoxycholate, 4.6 mM): 2.31 mg/gm oil
- SnEt2 Concentration ([2]; bile compound: Na glycocholate, 4.6 mM): 2.22 mg/gm oil
- SnEt2 Concentration ([2]; bile compound: None): 1.26 mg/gm oil
Compound: CCOC(=O)C1=Cc2c3nc(cc4nc(cc5[n-]c(cc6[n-]c2c(C)c6CC)c(C)c5CC)C(C)=C4CC)[C@@H](C)[C@]13CC.[Cl-].[Cl-].[Sn] (racemic) [SnEt2, tin ethyl etiopurpurin]
